Experimental data as given in US20070128217A1 (priority 2003, published 2007).

Experiments:
[1] = system: rabbit serum obtained by immunizing a rabbit with the SARS-CoV strain Frankfurt 1; format: binding; parameters: Binding of a rabbit serum to linear peptides / Binding of a rabbit serum to looped peptides / Rabbit serum linear peptides / Rabbit serum looped peptides / Binding of a rabbit serum to linear peptides of protein N of SARS-CoV Urbani (Rabbit serum linear peptides) / Binding of a rabbit serum to looped/cyclic peptides of protein N of SARS-CoV Urbani (Rabbit serum looped peptides): unit not given here
[2] = system: control sera (pooled serum of ten healthy LUMC hospital workers; commercial negative donor pooled serum from the Dutch bloodbank); format: binding, human; parameters: Binding of Control serum LUMC to linear peptides / Binding of Control serum Blood-bank to linear peptides / Binding of Control serum LUMC to looped peptides / Binding of Control Serum Blood-Bank to Looped peptides / Binding of Control serum LUMC to linear peptides of the protein M of SARS-CoV Urbani / Binding of Control serum Blood-bank to linear peptides of the protein M of SARS-CoV Urbani / Binding of Control serum LUMC to looped peptides of the protein M of SARS-CoV Urbani / Binding of Control Serum Blood-Bank to Looped peptides of the protein M of SARS-CoV Urbani: unit not given here
[3] = system: antibodies in sera from SARS patients (sera 1a, 1b, 2, 6, 37, 62, London, SARS-yellow, SARS-green); format: binding, human; parameters: Binding of serum 6 to linear peptides of protein X1 of SARS-CoV Urbani / Binding of serum 37 to linear peptides of protein X1 of SARS-CoV Urbani / Binding of serum 6 to looped/cyclic peptide (PEPSCAN-ELISA) / Binding of serum 37 to looped/cyclic peptide (PEPSCAN-ELISA) / Binding of serum 37 to looped/cyclic peptides of protein X1 of SARS-CoV Urbani / Binding of serum 6 to linear peptides of protein X2 / Binding of serum 37 to linear peptides of protein X2 / Binding of serum 37 to looped/cyclic peptides of protein X2 of SARS-CoV Urbani / Binding of serum 6 to linear peptides of protein M of SARS-CoV Urbani / Binding of serum 37 to linear peptides of protein M of SARS-CoV Urbani / Binding of serum 6 to looped/cyclic peptides of protein M of SARS-CoV Urbani / Binding of serum 37 to looped/cyclic peptides of protein M of SARS-CoV Urbani / Binding of serum 6 to linear peptides of protein X3 of SARS-CoV Urbani / Binding of serum 37 to linear peptides of protein X3 of SARS-CoV Urbani / Binding of serum 37 to looped/cyclic peptides of protein X3 of SARS-CoV Urbani / Binding of serum 6 to linear peptides of protein X4 of SARS-CoV Urbani / Binding of serum 37 to linear peptides of protein X4 of SARS-CoV Urbani / Binding of serum 37 to looped/cyclic peptides of protein X4 of SARS-CoV Urbani / Binding of serum 6 to linear peptides of protein X5 of SARS-CoV Urbani / Binding of serum 37 to linear peptides of protein X5 of SARS-CoV Urbani / Binding of serum 37 to looped/cyclic peptides of protein X5 of SARS-CoV Urbani / Binding of serum 6 to linear peptides of protein N of SARS-CoV Urbani / Binding of serum 37 to linear peptides of protein N of SARS-CoV Urbani / Binding of serum 6 to linear peptide (PEPSCAN-ELISA) / Binding of serum 1a to looped/cyclic peptides of protein N of SARS-CoV Urbani / Binding of serum 1b to looped/cyclic peptides of protein N of SARS-CoV Urbani / Binding of serum 2 to looped/cyclic peptides of protein N of SARS-CoV Urbani / Binding of serum 6 to looped/cyclic peptides of protein N of SARS-CoV Urbani / Binding of serum 37 to looped/cyclic peptides of protein N of SARS-CoV Urbani / Binding of serum 62 to looped/cyclic peptides of protein N of SARS-CoV Urbani / Binding of serum London to looped/cyclic peptides of protein N of SARS-CoV Urbani / Binding of serum SARS-green to looped/cyclic peptides of protein N of SARS-CoV Urbani: unit not given here

## LHKLLQTLVLKMLHS
[1]
  Binding of a rabbit serum to linear peptides: 0.2
  Binding of a rabbit serum to looped peptides: 0.4
[2]
  Binding of Control Serum Blood-Bank to Looped peptides: 0.8
  Binding of Control serum Blood-bank to linear peptides: 0.5
  Binding of Control serum LUMC to linear peptides: 0.3
  Binding of Control serum LUMC to looped peptides: 0.7
[3]
  Binding of serum 1a to linear peptides of protein X2: 0.6
  Binding of serum 1a to looped/cyclic peptides of protein X2 of SARS-CoV Urbani: 0.6
  Binding of serum 1b to linear peptides of protein X2: 0.0
  Binding of serum 1b to looped/cyclic peptides of protein X2 of SARS-CoV Urbani: 0.5
  Binding of serum 2 to linear peptides of protein X2: 0.4
  Binding of serum 2 to looped/cyclic peptides of protein X2 of SARS-CoV Urbani: 0.4
  Binding of serum 6 to linear peptides of protein X2: 0.3
  Binding of serum 6 to looped/cyclic peptides of protein X2 of SARS-CoV Urbani: 0.6
  Binding of serum 37 to linear peptides of protein X2: 0.4
  Binding of serum 37 to looped/cyclic peptides of protein X2 of SARS-CoV Urbani: 0.4
  Binding of serum 62 to linear peptides of protein X2: 0.5
  Binding of serum 62 to looped/cyclic peptides of protein X2 of SARS-CoV Urbani: 0.6
  Binding of serum London to linear peptides of protein X2: 0.4
  Binding of serum London to looped/cyclic peptides of protein X2 of SARS-CoV Urbani: 1.0
  Binding of serum SARS-green to linear peptides of protein X2: 0.6
  Binding of serum SARS-green to looped/cyclic peptides of protein X2 of SARS-CoV Urbani: 0.4
  Binding of serum SARS-yellow to linear peptides of protein X2: 0.3
  Binding of serum SARS-yellow to looped/cyclic peptides of protein X2 of SARS-CoV Urbani: 0.7

## LHSSSLTSLLKTHRM
[1]
  Binding of a rabbit serum to linear peptides: 0.2
  Binding of a rabbit serum to looped peptides: 0.4
[2]
  Binding of Control Serum Blood-Bank to Looped peptides: 0.4
  Binding of Control serum Blood-bank to linear peptides: 0.7
  Binding of Control serum LUMC to linear peptides: 0.4
  Binding of Control serum LUMC to looped peptides: 0.4
[3]
  Binding of serum 1a to linear peptides of protein X2: 0.6
  Binding of serum 1a to looped/cyclic peptides of protein X2 of SARS-CoV Urbani: 0.4
  Binding of serum 1b to linear peptides of protein X2: 0.5
  Binding of serum 1b to looped/cyclic peptides of protein X2 of SARS-CoV Urbani: 0.4
  Binding of serum 2 to linear peptides of protein X2: 0.4
  Binding of serum 2 to looped/cyclic peptides of protein X2 of SARS-CoV Urbani: 0.3
  Binding of serum 6 to linear peptides of protein X2: 0.5
  Binding of serum 6 to looped/cyclic peptides of protein X2 of SARS-CoV Urbani: 0.2
  Binding of serum 37 to linear peptides of protein X2: 0.5
  Binding of serum 37 to looped/cyclic peptides of protein X2 of SARS-CoV Urbani: 0.3
  Binding of serum 62 to linear peptides of protein X2: 0.5
  Binding of serum 62 to looped/cyclic peptides of protein X2 of SARS-CoV Urbani: 0.4
  Binding of serum London to linear peptides of protein X2: 0.6
  Binding of serum London to looped/cyclic peptides of protein X2 of SARS-CoV Urbani: 0.2
  Binding of serum SARS-green to linear peptides of protein X2: 0.6
  Binding of serum SARS-green to looped/cyclic peptides of protein X2 of SARS-CoV Urbani: 0.3
  Binding of serum SARS-yellow to linear peptides of protein X2: 0.6
  Binding of serum SARS-yellow to looped/cyclic peptides of protein X2 of SARS-CoV Urbani: 0.3

## LIVFTSCELYHYQEC
[1]
  Rabbit serum linear peptides: 0.5
  Rabbit serum looped peptides: 0.5
[2]
  Binding of Control Serum Blood-Bank to Looped peptides: 0.7
  Binding of Control serum Blood-bank to linear peptides: 0.6
  Binding of Control serum LUMC to linear peptides: 0.7
  Binding of Control serum LUMC to looped peptides: 0.8
[3]
  Binding of serum 1a to linear peptides of protein X4 of SARS-CoV Urbani: 0.8
  Binding of serum 1a to looped/cyclic peptides of protein X4 of SARS-CoV Urbani: 0.8
  Binding of serum 1b to linear peptides of protein X4 of SARS-CoV Urbani: 0.8
  Binding of serum 1b to looped/cyclic peptides of protein X4 of SARS-CoV Urbani: 0.6
  Binding of serum 2 to linear peptides of protein X4 of SARS-CoV Urbani: 0.6
  Binding of serum 2 to looped/cyclic peptides of protein X4 of SARS-CoV Urbani: 0.6
  Binding of serum 6 to linear peptides of protein X4 of SARS-CoV Urbani: 0.6
  Binding of serum 6 to looped/cyclic peptides of protein X4 of SARS-CoV Urbani: 0.5
  Binding of serum 37 to linear peptides of protein X4 of SARS-CoV Urbani: 1.0
  Binding of serum 37 to looped/cyclic peptides of protein X4 of SARS-CoV Urbani: 0.7
  Binding of serum 62 to linear peptides of protein X4 of SARS-CoV Urbani: 1.0
  Binding of serum 62 to looped/cyclic peptides of protein X4 of SARS-CoV Urbani: 0.7
  Binding of serum London to linear peptides of protein X4 of SARS-CoV Urbani: 0.8
  Binding of serum London to looped/cyclic peptides of protein X4 of SARS-CoV Urbani: 0.3
  Binding of serum SARS-green to linear peptides of protein X4 of SARS-CoV Urbani: 1.1
  Binding of serum SARS-green to looped/cyclic peptides of protein X4 of SARS-CoV Urbani: 0.5
  Binding of serum SARS-yellow to linear peptides of protein X4 of SARS-CoV Urbani: 0.6
  Binding of serum SARS-yellow to looped/cyclic peptides of protein X4 of SARS-CoV Urbani: 0.6

## LIYFLQCINACRIIM
[1]
  Binding of a rabbit serum to linear peptides: 0.1
  Binding of a rabbit serum to looped peptides: 0.3
[2]
  Binding of Control Serum Blood-Bank to Looped peptides: 0.9
  Binding of Control serum Blood-bank to linear peptides: 0.6
  Binding of Control serum LUMC to linear peptides: 0.6
  Binding of Control serum LUMC to looped peptides: 0.7
[3]
  Binding of serum 1a to linear peptides of protein X1 of SARS-CoV Urbani: 0.7
  Binding of serum 1a to looped/cyclic peptide (PEPSCAN-ELISA): 0.2
  Binding of serum 1b to linear peptides of protein X1 of SARS-CoV Urbani: 0.6
  Binding of serum 1b to looped/cyclic peptide (PEPSCAN-ELISA): 0.4
  Binding of serum 2 to linear peptides of protein X1 of SARS-CoV Urbani: 0.6
  Binding of serum 2 to looped/cyclic peptide (PEPSCAN-ELISA): 0.7
  Binding of serum 6 to linear peptides of protein X1 of SARS-CoV Urbani: 0.5
  Binding of serum 6 to looped/cyclic peptide (PEPSCAN-ELISA): 1.2
  Binding of serum 37 to linear peptides of protein X1 of SARS-CoV Urbani: 0.6
  Binding of serum 37 to looped/cyclic peptide (PEPSCAN-ELISA): 0.2
  Binding of serum 62 to linear peptides of protein X1 of SARS-CoV Urbani: 0.6
  Binding of serum 62 to looped/cyclic peptide (PEPSCAN-ELISA): 0.4
  Binding of serum London to linear peptides of protein X1 of SARS-CoV Urbani: 0.3
  Binding of serum London to looped/cyclic peptide (PEPSCAN-ELISA): 1.1
  Binding of serum SARS-green to linear peptides of protein X1 of SARS-CoV Urbani: 0.2
  Binding of serum SARS-green to looped/cyclic peptide (PEPSCAN-ELISA): 0.6
  Binding of serum SARS-yellow to linear peptides of protein X1 of SARS-CoV Urbani: 0.4
  Binding of serum SARS-yellow to looped/cyclic peptide (PEPSCAN-ELISA): 0.6

## LKEPCPSGTYEGNSP
[1]
  Rabbit serum linear peptides: 0.4
  Rabbit serum looped peptides: 0.0
[2]
  Binding of Control Serum Blood-Bank to Looped peptides: 0.5
  Binding of Control serum Blood-bank to linear peptides: 0.6
  Binding of Control serum LUMC to linear peptides: 0.3
  Binding of Control serum LUMC to looped peptides: 0.7
[3]
  Binding of serum 1a to linear peptides of protein X4 of SARS-CoV Urbani: 0.7
  Binding of serum 1a to looped/cyclic peptides of protein X4 of SARS-CoV Urbani: 0.6
  Binding of serum 1b to linear peptides of protein X4 of SARS-CoV Urbani: 0.4
  Binding of serum 1b to looped/cyclic peptides of protein X4 of SARS-CoV Urbani: 0.5
  Binding of serum 2 to linear peptides of protein X4 of SARS-CoV Urbani: 0.4
  Binding of serum 2 to looped/cyclic peptides of protein X4 of SARS-CoV Urbani: 0.5
  Binding of serum 6 to linear peptides of protein X4 of SARS-CoV Urbani: 0.3
  Binding of serum 6 to looped/cyclic peptides of protein X4 of SARS-CoV Urbani: 0.3
  Binding of serum 37 to linear peptides of protein X4 of SARS-CoV Urbani: 0.6
  Binding of serum 37 to looped/cyclic peptides of protein X4 of SARS-CoV Urbani: 0.5
  Binding of serum 62 to linear peptides of protein X4 of SARS-CoV Urbani: 0.7
  Binding of serum 62 to looped/cyclic peptides of protein X4 of SARS-CoV Urbani: 0.6
  Binding of serum London to linear peptides of protein X4 of SARS-CoV Urbani: 0.9
  Binding of serum London to looped/cyclic peptides of protein X4 of SARS-CoV Urbani: 0.3
  Binding of serum SARS-green to linear peptides of protein X4 of SARS-CoV Urbani: 0.5
  Binding of serum SARS-green to looped/cyclic peptides of protein X4 of SARS-CoV Urbani: 0.6
  Binding of serum SARS-yellow to linear peptides of protein X4 of SARS-CoV Urbani: 0.2
  Binding of serum SARS-yellow to looped/cyclic peptides of protein X4 of SARS-CoV Urbani: 0.2
